Results: patent US20130202698A1 (NANJING SANHOME PHARMACEUTICAL CO., LTD., priority 2005, published 2013)
Read-outs that look alike come from different tables or passages of the source. Marks after values point to notes of the source that are not given here.

Columns and labels:
righting reflex = test: Hypnotic effect, loss of righting reflex; format: in vivo, mice
Experimental: Thirty minutes after drug administration, the number of animals losing righting reflex (LORR) was recorded. […] Sodium pentobarbital was used at […] as the positive control.

Beagle dogs = test system: Beagle dogs
Experimental: In the studies, male and female Beagle dogs were treated at high doses of ornidazole enantiomers for 2 weeks, and then sacrificed for anatomical and pathological examinations. […] All the doses were administered in the levo- and racemate groups.

trichomonas vaginalis = test: Pharmacodynamic study of trichomonas vaginalis infection in mice; format: in vivo; set-up: ED90: unit not given beside the values; conditions: for ED50: Trichomonas vaginalis; for ED90: dosage of 90% inhibition rate
Experimental: Male ICR mice were injected intraperitoneally with liquid containing 0.4 ml 3×10^6 trichomonas vaginalis (trichomonas vaginalis from clinical patients). The mice were randomly divided into 19 groups, each with 10. The mice in solvent control group were given blank solutions by tail vein injection. The treatment groups were injected intravenously at 2, 24, 48, and 72 hours after infection with active drugs. The animals were killed five days after infection. Washing offal, fluid was centrifuged, and microscopically examined for life larvae. Autopsy was performed to determine whether there was any visceral and abdominal abscess, microscopic examination was conducted to determine the number of live trichomoniasis in the abscess. […] The abscess formation was inhibited in the treatment groups[…] and the number of live trichomoniasis was reduced. Calculate the dosage of 50% (ED50) and 90% (ED90) inhibition rate.

amoeba dysentery = test: Pharmacodynamic study of cecum amoeba infection in mice; format: in vivo; conditions: male ICR mice infected in the cecum, drug i.v. at 24, 48, 72 hours; for ED50: Mus musculus, iv, dosage of 50% inhibition rate; for ED90: dosage of 90% inhibition rate
Experimental: Male ICR mice were injected with liquid containing about 200,000 units of amoeba dysentery in the cecum. The mice were randomly divided into 19 groups, each with 10. The mice in solvent control group were given blank solutions by tail vein injection. The treatment groups were injected intravenously at 24, 48, 72 hours after infection with active drugs. The animals were killed six days after infection. Intestinal mucosal biopsies were done, and comparative studies of different stages of the amoeba were studied under microscope. […] Calculated the dosage of 50% (ED50) and 90% (ED90) inhibition rate.

[1] = Phase II clinical trial, intravenous, adverse events; format: in vivo, human
Experimental: A double-blinded randomized controlled trial was carried out to compare the adverse events between the I.V. levo-ornidazole and racemate treatment groups. […] The high rate of adverse events observed from the treatment by the racemic drug caused patient treatment non-compliant, which could be dangerous for life-threatening infections.

[2] = test system: Remefline-induced convulsion; test: Anticonvulsant effects on Remefline-induced convulsion in mice; format: in vivo
Experimental: In one experiment, the anticonvulsant effects of levo- and dextro-ornidazole against drug-induced convulsions in mice were compared. In four different animal convulsion models, mice were treated by four different seizure-inducing agents, including Remefline, Strychnine, isoniazid, thiosemicarbazide. Levo- or dextro-ornidazole was administered along with the seizure-inducing agents, and several outcomes were measured, including rate of convulsion, mortality rate, time to convulsion (latency), and time to death. Diazepam was used as a positive anticonvulsant control.
Mice are randomized into 4 treatment groups (n=10 with half male and half female): dextro- or levo-ornidazole (dosage 40, 80, 160 mg/kg), vehicle control group (15% propylene glycol in 0.9% sodium chloride, 20 mL/kg) and the positive control group. Animals are treated with known convulsion-inducing agents, followed by the drug or vehicle control given intravenously. The dose volume is 20 mL/kg with an infusion rate of 0.2 mL/10 seconds.

glutamate = test: Effects on excitatory neurotransmitter glutamate levels in mice brain; format: in vivo
Excerpt: In another experiment, the effects on excitatory neurotransmitter levels by levo- and dextro-ornidazole were compared.

[3] = test system: motor balance and coordination; conditions: both, mouse, in vivo
Purkinje cells = conditions: dog, in vivo, 200 mg/kg
[4] = male ICR mice infected intraperitoneally, drug i.v. at 2, 24, 48, 72 hours
[5] = both, mouse, in vivo, 40 mg/kg, 30 min
[6] = both, mouse, in vivo, 80 mg/kg, 30 min
[7] = male ICR mice infected intraperitoneally, drug i.v. at 2, 24, 48, 72 hours, dosage of 50% inhibition rate, read-out: ED50

## Cc1ncc([N+](=O)[O-])n1CC(O)CCl (racemic) [Racemic ornidazole, 1-(3-Chloro-2-hydroxypropyl)-2-methyl-5-nitroimidazole]
Righting reflex; mice, 40 mg/kg, 10 animals
  Number of animals Loss of Righting Flex 30 min Post-dose: 0
Righting reflex; mice, 80 mg/kg, 10 animals
  Number of animals Loss of Righting Flex 30 min Post-dose: 0
Righting reflex; mice, 160 mg/kg, 10 animals, listed as Racemate
  Number of animals Loss of Righting Flex 30 min Post-dose: 6*^#
Righting reflex; mice, 160 mg/kg, 10 animals, listed as racemate
  Number of animals Loss of Righting Flex 30 min Post-dose: 6
Beagle dogs; Beagle dogs, I.V. 200 mg/kg for 2 weeks
  Toxicity Severity: Moderate
Trichomonas vaginalis; 72 h
  ED50: 11.3 mg/kg
Trichomonas vaginalis; [4]
  ED90: 43.8
Amoeba dysentery
  ED50: 11.4 mg/kg
  ED90: 55.2
[1]; human phase II, I.V.
  Adverse events reported (total): 42
  Appetite drop, # of Patients with AE: 0
  Appetite drop, Incidence (%): 0.00%
  Dizziness, # of Patients with AE: 5
  Dizziness, Incidence (%): 3.60%
  Dry mouth, # of Patients with AE: 2
  Dry mouth, Incidence (%): 1.44%
  Headache, # of Patients with AE: 1
  Headache, Incidence (%): 0.72%
  Hypersomnia, # of Patients with AE: 10
  Hypersomnia, Incidence (%): 7.19^## %
  Hypodynamia, # of Patients with AE: 1
  Hypodynamia, Incidence (%): 0.72%
  Nausea, # of Patients with AE: 1
  Nausea, Incidence (%): 0.72%
  Stomach discomfort, # of Patients with AE: 1
  Stomach discomfort, Incidence (%): 0.72%
  Total incidence rate of adverse events: 21.58%
  Vertigo, # of Patients with AE: 17
  Vertigo, Incidence (%): 12.23^## %
  Vomiting, # of Patients with AE: 1
  Vomiting, Incidence (%): 0.72%
  WBC decline, # of Patients with AE: 3
  WBC decline, Incidence (%): 2.16%
[1]; human phase II, I.V., out of 136 (levo) / 139 (racemate) patients
  Patients with adverse events (total): 30 patients

## Cc1ncc([N+](=O)[O-])n1C[C@@H](O)CCl [D-ornidazole, R-(+)-ornidazole]
[2]; 40 mg/kg i.v., n=10
  Mortality Rate: 10/10
  Rate of Convulsion: 10/10
[2]; 80 mg/kg i.v., n=10
  Rate of Convulsion: 5/10*
[2]; 80 mg/kg i.v., n=10, listed as Dextro-ornidazole, 80 mg/kg
  Mortality Rate: 0/10**
[2]; 80 mg/kg i.v., n=10, listed as dextro-ornidazole, 80 mg/kg
  Mortality Rate: 0/10
[2]; 160 mg/kg i.v., n=10
  Mortality Rate: 0/10**
  Rate of Convulsion: 0/10**
glutamate; FIG. 4
  Effect on glutamate levels in cerebrum and cerebellum: significantly decreased
Righting reflex; [5]
  Number of animals Loss of Righting Flex 30 min Post-dose: 0
Righting reflex; [6]
  Number of animals Loss of Righting Flex 30 min Post-dose: 0
Beagle dogs; dog, in vivo, iv, 200 mg/kg
  Toxicity Severity: Severe
Trichomonas vaginalis; [7]
  ED50: 14.1 mg/kg
Trichomonas vaginalis; [4]
  ED90: 54.5
Amoeba dysentery
  ED50: 13.3 mg/kg
  ED90: 64.4
[3]; 40 mg/kg, 0.5 h
  Number of Animals Fall Off: 0
[3]; 40 mg/kg, 1 h
  Number of Animals Fall Off: 1
[3]; 40 mg/kg, 2 h
  Number of Animals Fall Off: 2
[3]; 40 mg/kg, 3 h
  Number of Animals Fall Off: 3
[3]; 40 mg/kg, 4 h
  Number of Animals Fall Off: 0
[3]; 80 mg/kg, 0.5 h
  Number of Animals Fall Off: 3
[3]; 80 mg/kg, 1 h
  Number of Animals Fall Off: 3
[3]; 80 mg/kg, 2 h
  Number of Animals Fall Off: 2
[3]; 80 mg/kg, 3 h
  Number of Animals Fall Off: 1
[3]; 80 mg/kg, 4 h
  Number of Animals Fall Off: 0
[3]; 160 mg/kg, 0.5 h
  Number of Animals Fall Off: 10##
[3]; 160 mg/kg, 1 h
  Number of Animals Fall Off: 10##
[3]; 160 mg/kg, 2 h
  Number of Animals Fall Off: 10##
[3]; 160 mg/kg, 3 h
  Number of Animals Fall Off: 10##
[3]; 160 mg/kg, 4 h
  Number of Animals Fall Off: 9##
Purkinje cells
  Purkinje cell morphology: Purkinje cell denaturing and morphology change
Plasma protein
  Plasma protein binding, levo- vs dextro-ornidazole: Similar

## Cc1ncc([N+](=O)[O-])n1C[C@H](O)CCl [L-ornidazole, S-(−)-ornidazole]
[2]; 40 mg/kg i.v., n=10
  Mortality Rate: 10/10
  Rate of Convulsion: 10/10
[2]; 80 mg/kg i.v., n=10
  Rate of Convulsion: 10/10^#
[2]; 80 mg/kg i.v., n=10, listed as Levo-ornidazole, 80 mg/kg
  Mortality Rate: 10/10^##
[2]; 80 mg/kg i.v., n=10, listed as levo-ornidazole, 80 mg/kg
  Mortality Rate: 10/10
[2]; 160 mg/kg i.v., n=10
  Mortality Rate: 1/10**
  Rate of Convulsion: 9/10^##
glutamate; FIG. 4, listed as Levo-ornidazole
  Effect on glutamate levels in cerebrum and cerebellum: little effect
glutamate; FIG. 4, listed as levo-ornidazole
  Effect on glutamate levels in cerebrum and cerebellum: little effects
Righting reflex; [5]
  Number of animals Loss of Righting Flex 30 min Post-dose: 0
Righting reflex; [6]
  Number of animals Loss of Righting Flex 30 min Post-dose: 0
Righting reflex; both, mouse, in vivo, 160 mg/kg, 30 min
  Number of animals Loss of Righting Flex 30 min Post-dose: 0
Righting reflex; mouse, in vivo, 160 mg/kg
  Number of animals Loss of Righting Flex 30 min Post-dose: none
Beagle dogs; dog, in vivo, iv, 200 mg/kg
  Toxicity Severity: Mild
Trichomonas vaginalis; [7]
  ED50: 9.1 mg/kg
Trichomonas vaginalis; [4]
  ED90: 32.6
Amoeba dysentery
  ED50: 10.5 mg/kg
  ED90: 41.2
[1]; human, in vivo, iv
  Adverse events reported (total): 3
  Appetite drop, # of Patients with AE: 1
  Appetite drop, Incidence (%): 0.74%
  Dizziness, # of Patients with AE: 0
  Dizziness, Incidence (%): 0.00%
  Dry mouth, # of Patients with AE: 0
  Dry mouth, Incidence (%): 0.00%
  Headache, # of Patients with AE: 0
  Headache, Incidence (%): 0.00%
  Hypersomnia, # of Patients with AE: 0
  Hypersomnia, Incidence (%): 0.00%
  Hypodynamia, # of Patients with AE: 0
  Hypodynamia, Incidence (%): 0.00%
  Nausea, # of Patients with AE: 0
  Nausea, Incidence (%): 0.00%
  Patients with adverse events (total): 2 patients
  Stomach discomfort, # of Patients with AE: 0
  Stomach discomfort, Incidence (%): 0.00%
  Total incidence rate of adverse events: 1.47%
  Vertigo, # of Patients with AE: 0
  Vertigo, Incidence (%): 0.00%
  Vomiting, # of Patients with AE: 0
  Vomiting, Incidence (%): 0.00%
  WBC decline, # of Patients with AE: 2
  WBC decline, Incidence (%): 1.47%
[3]; 40 mg/kg, 0.5 h
  Number of Animals Fall Off: 0
[3]; 40 mg/kg, 1 h
  Number of Animals Fall Off: 1
[3]; 40 mg/kg, 2 h
  Number of Animals Fall Off: 0
[3]; 40 mg/kg, 3 h
  Number of Animals Fall Off: 0
[3]; 40 mg/kg, 4 h
  Number of Animals Fall Off: 0
[3]; 80 mg/kg, 0.5 h
  Number of Animals Fall Off: 0
[3]; 80 mg/kg, 1 h
  Number of Animals Fall Off: 0
[3]; 80 mg/kg, 2 h
  Number of Animals Fall Off: 0
[3]; 80 mg/kg, 3 h
  Number of Animals Fall Off: 1
[3]; 80 mg/kg, 4 h
  Number of Animals Fall Off: 1
[3]; 160 mg/kg, 0.5 h
  Number of Animals Fall Off: 0
[3]; 160 mg/kg, 1 h
  Number of Animals Fall Off: 0
[3]; 160 mg/kg, 2 h
  Number of Animals Fall Off: 3
[3]; 160 mg/kg, 3 h
  Number of Animals Fall Off: 2
[3]; 160 mg/kg, 4 h
  Number of Animals Fall Off: 1
Purkinje cells
  Purkinje cell morphology: did not cause significant change
Plasma protein
  Plasma protein binding, levo- vs dextro-ornidazole: Similar
